Results taken from paper PMC8213057, “Targeting ALK2: An Open Science Approach to Developing Therapeutics for the Treatment of Diffuse Intrinsic Pontine Glioma” (Journal of Medicinal Chemistry, 2020).

Columns and labels:
Conditions in all cases: 1 μM; Run 1, Run 2
ACK1 = ACK1 (Homo sapiens, UniProt Q07912)
ARAF = molecular target: T1, ARAF (Homo sapiens, UniProt P10398)
T1 sequence (P10398 1-606): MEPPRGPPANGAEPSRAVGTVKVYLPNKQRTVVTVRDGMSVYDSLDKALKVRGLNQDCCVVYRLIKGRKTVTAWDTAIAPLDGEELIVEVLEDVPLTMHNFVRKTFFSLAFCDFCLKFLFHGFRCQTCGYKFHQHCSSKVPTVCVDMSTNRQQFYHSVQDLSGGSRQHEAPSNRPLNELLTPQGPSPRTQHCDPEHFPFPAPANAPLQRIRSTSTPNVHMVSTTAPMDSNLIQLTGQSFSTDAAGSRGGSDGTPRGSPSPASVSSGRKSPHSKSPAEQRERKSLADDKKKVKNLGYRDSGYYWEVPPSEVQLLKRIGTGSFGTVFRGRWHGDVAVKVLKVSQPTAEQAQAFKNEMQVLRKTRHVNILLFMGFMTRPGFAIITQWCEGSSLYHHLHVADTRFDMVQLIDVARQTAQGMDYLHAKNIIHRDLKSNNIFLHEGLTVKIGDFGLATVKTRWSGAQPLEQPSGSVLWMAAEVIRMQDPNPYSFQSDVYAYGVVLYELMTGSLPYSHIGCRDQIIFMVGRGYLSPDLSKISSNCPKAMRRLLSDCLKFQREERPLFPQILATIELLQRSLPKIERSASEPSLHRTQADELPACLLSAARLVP

CDK6/cyclin D1 = CDK6/cyclin D1 (Homo sapiens, UniProt Q00534)
DRAK1/STK17A = molecular target: T2, DRAK1/STK17A (Homo sapiens, UniProt Q9UEE5)
T2 sequence (Q9UEE5 1-414): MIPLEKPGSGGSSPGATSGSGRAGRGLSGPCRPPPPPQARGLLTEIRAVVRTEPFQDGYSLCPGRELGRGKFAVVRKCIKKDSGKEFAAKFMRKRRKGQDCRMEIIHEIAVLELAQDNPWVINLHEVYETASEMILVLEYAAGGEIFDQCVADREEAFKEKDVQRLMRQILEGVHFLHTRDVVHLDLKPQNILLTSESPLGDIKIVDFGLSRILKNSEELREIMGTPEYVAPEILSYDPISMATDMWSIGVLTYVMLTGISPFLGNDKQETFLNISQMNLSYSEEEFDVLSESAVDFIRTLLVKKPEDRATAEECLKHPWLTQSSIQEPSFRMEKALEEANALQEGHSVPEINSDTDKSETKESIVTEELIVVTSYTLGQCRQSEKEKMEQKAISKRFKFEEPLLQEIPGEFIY

LIMK1 = LIMK1 (Homo sapiens, UniProt P53667)
LKB1 = molecular target: T3, LKB1 (Homo sapiens, UniProt Q15831)
T3 sequence (Q15831 1-433): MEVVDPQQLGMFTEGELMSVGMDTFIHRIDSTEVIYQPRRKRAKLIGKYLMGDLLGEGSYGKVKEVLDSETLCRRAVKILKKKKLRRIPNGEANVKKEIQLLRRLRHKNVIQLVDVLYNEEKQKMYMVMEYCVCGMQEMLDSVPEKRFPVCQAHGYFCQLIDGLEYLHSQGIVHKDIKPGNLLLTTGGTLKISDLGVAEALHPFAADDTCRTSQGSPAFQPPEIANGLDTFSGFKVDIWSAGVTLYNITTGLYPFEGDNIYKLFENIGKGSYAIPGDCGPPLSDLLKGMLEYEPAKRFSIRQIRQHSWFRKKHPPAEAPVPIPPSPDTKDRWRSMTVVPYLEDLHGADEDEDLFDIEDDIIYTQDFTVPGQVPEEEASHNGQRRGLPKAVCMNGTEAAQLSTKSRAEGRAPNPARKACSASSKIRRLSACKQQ
T3 sequence (Q7RTN6 1-431 partner): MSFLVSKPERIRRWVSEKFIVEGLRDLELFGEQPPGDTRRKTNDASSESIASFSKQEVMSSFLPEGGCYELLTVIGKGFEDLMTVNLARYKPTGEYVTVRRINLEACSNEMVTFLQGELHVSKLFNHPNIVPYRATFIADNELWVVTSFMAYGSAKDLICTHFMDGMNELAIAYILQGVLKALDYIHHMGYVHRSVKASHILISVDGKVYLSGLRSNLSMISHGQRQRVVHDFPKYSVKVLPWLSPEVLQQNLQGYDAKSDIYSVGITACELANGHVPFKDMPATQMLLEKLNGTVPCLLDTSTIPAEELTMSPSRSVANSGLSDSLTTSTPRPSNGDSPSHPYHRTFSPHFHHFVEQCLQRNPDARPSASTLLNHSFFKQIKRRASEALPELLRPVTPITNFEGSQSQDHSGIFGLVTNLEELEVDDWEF
T3 sequence (Q9Y376 1-341 partner): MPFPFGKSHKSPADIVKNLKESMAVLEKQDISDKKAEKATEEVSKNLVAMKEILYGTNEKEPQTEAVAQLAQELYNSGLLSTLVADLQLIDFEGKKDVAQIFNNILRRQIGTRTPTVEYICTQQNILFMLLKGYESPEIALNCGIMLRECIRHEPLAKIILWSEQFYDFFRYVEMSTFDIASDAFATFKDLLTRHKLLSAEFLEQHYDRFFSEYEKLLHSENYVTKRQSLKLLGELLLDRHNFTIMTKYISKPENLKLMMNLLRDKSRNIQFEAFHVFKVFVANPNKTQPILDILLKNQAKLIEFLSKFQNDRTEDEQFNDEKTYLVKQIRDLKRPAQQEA

PKN2/PRK2 = PKN2/PRK2 (Homo sapiens, UniProt Q16513)
TXK = molecular target: T4, TXK (Homo sapiens, UniProt P42681)
T4 sequence (P42681 1-527): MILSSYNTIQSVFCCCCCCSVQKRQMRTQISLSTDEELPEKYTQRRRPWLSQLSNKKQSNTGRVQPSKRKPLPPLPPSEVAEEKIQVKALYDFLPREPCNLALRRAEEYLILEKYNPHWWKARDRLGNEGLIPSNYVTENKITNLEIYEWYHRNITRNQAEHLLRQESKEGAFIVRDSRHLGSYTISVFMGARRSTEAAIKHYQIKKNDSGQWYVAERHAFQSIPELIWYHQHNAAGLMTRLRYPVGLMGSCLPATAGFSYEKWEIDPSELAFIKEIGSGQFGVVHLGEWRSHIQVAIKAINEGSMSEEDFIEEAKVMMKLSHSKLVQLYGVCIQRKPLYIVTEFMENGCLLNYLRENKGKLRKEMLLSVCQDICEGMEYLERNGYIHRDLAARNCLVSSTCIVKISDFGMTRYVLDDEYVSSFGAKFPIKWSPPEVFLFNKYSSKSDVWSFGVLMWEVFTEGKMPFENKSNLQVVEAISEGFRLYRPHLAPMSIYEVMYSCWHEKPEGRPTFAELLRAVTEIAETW

Chain of CDK6/cyclin D1 (Q00534 whole entry): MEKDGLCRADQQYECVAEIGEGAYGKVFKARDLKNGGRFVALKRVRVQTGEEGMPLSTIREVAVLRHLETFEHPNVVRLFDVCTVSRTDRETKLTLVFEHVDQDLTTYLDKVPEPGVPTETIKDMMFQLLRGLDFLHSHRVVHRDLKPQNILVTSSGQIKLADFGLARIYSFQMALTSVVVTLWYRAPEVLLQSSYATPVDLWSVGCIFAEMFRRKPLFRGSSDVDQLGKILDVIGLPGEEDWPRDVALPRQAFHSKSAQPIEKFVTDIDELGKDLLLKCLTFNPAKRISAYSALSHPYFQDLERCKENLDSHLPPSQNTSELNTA
Chain of CDK6/cyclin D1 (P24385 whole entry partner): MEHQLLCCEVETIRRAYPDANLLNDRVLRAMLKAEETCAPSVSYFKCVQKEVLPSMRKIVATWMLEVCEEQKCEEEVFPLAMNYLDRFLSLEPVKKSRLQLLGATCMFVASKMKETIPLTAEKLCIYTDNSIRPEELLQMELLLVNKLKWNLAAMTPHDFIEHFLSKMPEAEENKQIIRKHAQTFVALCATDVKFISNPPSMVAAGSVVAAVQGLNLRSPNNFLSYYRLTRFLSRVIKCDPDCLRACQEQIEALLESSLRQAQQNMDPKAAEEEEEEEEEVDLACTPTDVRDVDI
Chain of LIMK1 (P53667 whole entry): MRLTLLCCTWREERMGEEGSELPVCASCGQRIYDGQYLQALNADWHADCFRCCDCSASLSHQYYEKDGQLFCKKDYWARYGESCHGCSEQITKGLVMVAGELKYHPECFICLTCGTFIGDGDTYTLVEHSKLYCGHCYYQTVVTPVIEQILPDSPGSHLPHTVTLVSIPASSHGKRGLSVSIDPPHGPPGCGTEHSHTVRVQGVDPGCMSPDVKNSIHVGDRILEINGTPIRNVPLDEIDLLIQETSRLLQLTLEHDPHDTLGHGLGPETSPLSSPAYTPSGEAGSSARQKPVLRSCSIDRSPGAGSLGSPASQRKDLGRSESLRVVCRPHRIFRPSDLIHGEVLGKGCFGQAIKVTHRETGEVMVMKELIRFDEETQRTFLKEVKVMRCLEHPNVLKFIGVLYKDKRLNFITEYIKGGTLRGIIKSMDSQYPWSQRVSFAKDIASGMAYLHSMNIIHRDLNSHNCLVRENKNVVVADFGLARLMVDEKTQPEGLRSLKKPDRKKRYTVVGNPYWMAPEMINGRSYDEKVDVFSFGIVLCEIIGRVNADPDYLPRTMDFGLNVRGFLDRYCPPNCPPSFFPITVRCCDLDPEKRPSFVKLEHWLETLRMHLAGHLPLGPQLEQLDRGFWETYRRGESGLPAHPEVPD
Chain of PKN2/PRK2 (Q16513 whole entry): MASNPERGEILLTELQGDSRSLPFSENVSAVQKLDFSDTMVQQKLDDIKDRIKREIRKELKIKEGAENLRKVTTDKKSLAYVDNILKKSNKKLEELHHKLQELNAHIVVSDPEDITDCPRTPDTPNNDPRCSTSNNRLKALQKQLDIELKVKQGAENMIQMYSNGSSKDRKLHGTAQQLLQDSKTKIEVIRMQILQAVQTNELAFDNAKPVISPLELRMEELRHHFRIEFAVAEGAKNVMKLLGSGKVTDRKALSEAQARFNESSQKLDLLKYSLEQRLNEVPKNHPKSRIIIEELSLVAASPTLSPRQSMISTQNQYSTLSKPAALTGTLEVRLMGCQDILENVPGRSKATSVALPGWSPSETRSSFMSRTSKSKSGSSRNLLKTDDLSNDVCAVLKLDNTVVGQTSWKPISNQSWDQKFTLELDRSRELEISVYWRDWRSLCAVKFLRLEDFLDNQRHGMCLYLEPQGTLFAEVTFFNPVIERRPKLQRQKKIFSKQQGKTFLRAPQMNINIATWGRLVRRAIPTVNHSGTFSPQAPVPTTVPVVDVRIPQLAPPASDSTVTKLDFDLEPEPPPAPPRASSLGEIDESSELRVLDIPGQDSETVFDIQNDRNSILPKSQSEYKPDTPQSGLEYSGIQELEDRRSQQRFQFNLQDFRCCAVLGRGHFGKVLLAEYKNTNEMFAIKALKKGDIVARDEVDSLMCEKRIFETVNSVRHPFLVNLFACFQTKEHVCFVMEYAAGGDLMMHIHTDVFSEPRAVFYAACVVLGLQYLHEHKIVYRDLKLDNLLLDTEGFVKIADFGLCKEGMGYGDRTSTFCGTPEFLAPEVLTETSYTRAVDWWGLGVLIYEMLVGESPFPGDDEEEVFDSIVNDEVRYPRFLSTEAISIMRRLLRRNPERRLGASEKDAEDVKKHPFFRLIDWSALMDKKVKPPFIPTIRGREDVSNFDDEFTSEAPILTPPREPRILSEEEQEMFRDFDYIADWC
Chain of ACK1 (Q07912 whole entry): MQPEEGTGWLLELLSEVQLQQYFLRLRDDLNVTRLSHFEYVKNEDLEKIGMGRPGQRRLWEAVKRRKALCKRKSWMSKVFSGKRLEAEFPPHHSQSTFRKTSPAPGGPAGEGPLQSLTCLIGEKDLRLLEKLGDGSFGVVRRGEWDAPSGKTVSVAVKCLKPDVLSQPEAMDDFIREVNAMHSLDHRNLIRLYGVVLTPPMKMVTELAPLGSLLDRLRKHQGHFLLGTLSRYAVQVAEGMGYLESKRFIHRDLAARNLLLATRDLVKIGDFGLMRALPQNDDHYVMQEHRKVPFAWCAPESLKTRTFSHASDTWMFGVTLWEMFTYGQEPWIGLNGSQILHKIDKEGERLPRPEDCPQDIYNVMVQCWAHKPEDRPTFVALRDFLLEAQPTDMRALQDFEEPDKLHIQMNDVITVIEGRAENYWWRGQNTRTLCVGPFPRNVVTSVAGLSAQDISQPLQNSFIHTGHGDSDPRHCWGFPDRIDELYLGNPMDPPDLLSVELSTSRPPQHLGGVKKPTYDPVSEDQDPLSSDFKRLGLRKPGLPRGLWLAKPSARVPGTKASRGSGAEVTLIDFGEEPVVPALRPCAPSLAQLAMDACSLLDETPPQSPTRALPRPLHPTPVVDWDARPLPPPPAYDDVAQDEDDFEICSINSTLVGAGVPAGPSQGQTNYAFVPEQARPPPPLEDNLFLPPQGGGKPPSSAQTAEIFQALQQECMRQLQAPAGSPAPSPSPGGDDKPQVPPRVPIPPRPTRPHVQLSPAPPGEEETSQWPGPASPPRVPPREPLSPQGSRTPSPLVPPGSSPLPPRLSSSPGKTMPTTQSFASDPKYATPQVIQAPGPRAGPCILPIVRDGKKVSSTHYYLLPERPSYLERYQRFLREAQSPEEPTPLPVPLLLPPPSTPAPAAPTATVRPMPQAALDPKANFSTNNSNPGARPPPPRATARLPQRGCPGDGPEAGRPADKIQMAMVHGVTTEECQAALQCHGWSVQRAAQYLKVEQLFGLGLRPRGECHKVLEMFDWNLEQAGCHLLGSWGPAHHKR

| Structure (SMILES) | % enzyme activity (ACK1) | % enzyme activity (ARAF) | % enzyme activity (CDK6/cyclin D1) | % enzyme activity (DRAK1/STK17A) | % enzyme activity (LIMK1) | % enzyme activity (LKB1) | % enzyme activity (PKN2/PRK2) | % enzyme activity (TXK) |
| --- | --- | --- | --- | --- | --- | --- | --- | --- |
| COc1cc(-c2cncc(-c3ccc(N4CCN(C)CC4)cc3)c2C)cc(F)c1C(N)=O [Compound 26a, 2-Fluoro-6-methoxy-4-(4-methyl-5-(4-(4-methylpiperazin-1-yl)phenyl)pyridin-3-yl)benzamide] | 65.46% | 28.83% | 97.80% | 95.60% | 64.18% | 79.50% | 91.84% | 100.80% |
| COc1cc(-c2cncc(-c3ccc(N4C[C@@H](C)N(C)[C@@H](C)C4)cc3)c2C)cc(F)c1C(N)=O [Compound 26c, 2-Fluoro-6-methoxy-4-(4-methyl-5-(4-((3R,5S)-3,4,5-trimethylpiperazin-1-yl)phenyl)pyridin-3-yl)benzamide] | 76.07% | 43.32% | 92.80% | 95.69% | 72.63% | 90.86% | 95.77% | 95.85% |
